This passage reports melting point results from a melting point compilation (Tetko et al.; mined from patent text by program, amines drawn as free bases though some values may be those of a salt).

In general, melting point refers to the temperature, or range, at which the solid turns liquid.

SMILES strings stand for the structures.

Compound `O=[N+]([O-])c1ccc(Oc2cccc3c(Oc4ccc([N+](=O)[O-])c(O)c4)cccc23)cc1O` showed a melting point of 238 to 241 °C.

On to `CC(C)(C)OC(=O)NCc1cccc(OCCC2Oc3ccccc3N(Cc3cccc(Cl)c3)C2=O)c1` (stereo not drawn), for which the melting point was 98 to 100 °C.

For `CN(C)CCc1ccc(NC=O)c2[nH]ncc12`, the melting point was in the range of 210 to 211 °C.

On to `C=CCc1nc(Cl)nc(Cl)c1OC`, for which the melting point lay within 61 to 62 °C.

`C=CCOC(=O)c1ccc(N)cc1` returned a melting point of 48 to 50 °C.

`CCCNC(=O)C(C)(C)N=NC(C)(C)C(=O)NCCC`: the melting point stood at 65 °C.

With `Nc1ccc(OC(F)(F)F)c(C(=O)O)c1`, the melting point lay in the range of 196 to 197 °C.

In the case of `ClCC1c2ccccc2Oc2ccccc21`, the melting point fell in the range of 104 to 106 °C.

`CCN1CCCC1CNC(=O)c1c(C)[nH]c2ccccc12` (stereo not drawn): the melting point fell in the range of 132 to 135 °C.

Take `CC1CCN(CCC(=O)Nc2ccc3c(=O)c4ccc(NC(=O)CCN5CCC(C)CC5)cc4[nH]c3c2)CC1`: the melting point is over 320 °C.

`COc1ccc(-c2n[nH]c(-c3cccc(C(=O)O)c3)n2)cc1` gave a melting point of 287 to 289 °C.

On to `CN1CC[C@@H]2CC(=O)c3cccc(F)c3[C@@H]2C1` (relative stereo), for which the melting point is over 220 °C.

The compound `CC(C)c1cc(C(=O)Nc2ccc(C(=O)O)cc2)sc1C(C)C` gave a melting point of 219 to 221 °C.

The compound `CCOC(=O)c1c(N(C)C)cc(C)c([N+](=O)[O-])c1Cl` displayed a melting point of 76 °C.

`CCSc1c(C=NO)c(=O)n(C)c(=O)n1C` returned a melting point of 161 to 163 °C.

The compound `CC(C)(C)OP(=O)(CO)OC(C)(C)C` registered a melting point of 100 to 102 °C.

In turn, `CN(C)S(=O)(=O)c1cnc(NC(=O)[C@H](CC2CCCC2)c2ccc(S(C)(=O)=O)c(Cl)c2)cn1` gave a melting point of 100 °C.

Turning to `C=CCOC(=O)Nc1ccc(C2=NNC(=O)CC2C)cc1` (stereo not drawn), the melting point lay within 206 to 207 °C.

`CCOC(=O)c1conc1-c1ccc(Cl)c(Cl)c1` displayed a melting point of 129 to 130 °C.

Consider `CC(C)NCC1(O)COc2ccc(O)cc2OC1` (stereo not drawn), for which the melting point was in the range of 108 to 110 °C.

In the case of `COC(=O)c1ccn2ncnc2c1`, the melting point lay within 125 to 126 °C.

`C[C@@H]1OC(=O)N[C@H]1Cc1ccccc1` registered a melting point of 116 °C.

On to `Cc1nc2c(Cl)c(NC(=O)Cc3ccc(Cl)cc3Cl)ccc2s1`, for which the melting point fell in the range of 257 to 258 °C.

`O=[N+]([O-])c1cnn(-c2ccc(Cl)nn2)c1` came in with a melting point of 169 to 172 °C.

The compound `Cc1noc(NS(=O)(=O)c2cc(Cl)c(Cl)s2)c1Br` registered a melting point of 135 to 138 °C.

Compound `COc1cc(OC)nc(NC(=O)NS(=O)(=O)c2ncccc2-c2ccccc2)n1` gave a melting point of 181 °C.

`CC(N)(C(N)=O)C(F)(F)F` (stereo not drawn) returned a melting point of 84 to 85 °C.

Compound `O=C(NCCO)c1cccc(-c2ncc3ccn(Cc4ccc(Cl)cc4Cl)c3n2)c1` showed a melting point of 194 to 195 °C.

In turn, `COC(=O)c1ccccc1Sc1c(O)c2c(Cl)cc(Cl)cc2[nH]c1=O` had a melting point of 158 to 160 °C.

Take `Cc1ccc(C=CCN2CCc3nc(N)sc3CC2)cc1`: the melting point is 126 to 130 °C.

Turning to `CCCCC=Cc1cc2ccccc2[nH]1`, the melting point is 70 to 72 °C.

Take `O=C1[C@H]2CCC[C@H]2Nc2ccccc2N1Cc1ccc(OCc2ccccc2)cc1` (relative stereo): the melting point was in the range of 154 to 155 °C.

With `O=C1CC(c2ccc(OCc3ccccc3)cc2)CN1O` (stereo not drawn), the melting point was 150 to 155 °C.

`CCOC(=O)c1cn(C(C)F)c2cc(-n3cccc3)c(F)cc2c1=O` (stereo not drawn) registered a melting point of 231 to 234 °C.

`Cc1cc(C)c(C)c(COc2cccc(-c3c(-c4ccccc4)coc3C(=O)NNC(=O)c3ccc(O)c([N+](=O)[O-])c3)c2)c1C` showed a melting point of 130 to 132 °C.

`Cc1ccc(C(=O)NCCCn2ccnc2)c(Nc2ccc3cn[nH]c3c2)n1` yielded a melting point of 203 to 205 °C.

With `CS(=O)c1nnc(-c2ccc3ncn(-c4ccc(OC(F)(F)F)cc4)c3c2)o1` (stereo not drawn), the melting point lay in the range of 152 to 153 °C.

Regarding `CCOc1nc(N)nc2c1ncn2CCC(CO)CO`, the melting point lay within 150 to 152 °C.

`CCc1nc(N)nc(N)c1N1CCN(c2ccc(C(=O)O)cc2)CC1` registered a melting point of over 300 °C.

In turn, `CC(=O)N(c1ncc(C(F)(F)F)cc1Cl)c1c([N+](=O)[O-])cc(C(F)(F)F)c(Cl)c1[N+](=O)[O-]` yielded a melting point of 75 to 77 °C.

Turning to `C#CCn1cc(CO)c(C(F)(F)F)c1`, the melting point was found to be 45 °C.

As for `CN(Cc1ccc2[nH]cc(CCN3C(=O)c4ccccc4C3=O)c2c1)S(=O)(=O)C(F)(F)F`, the melting point lay in the range of 131 to 133 °C.

Regarding `COc1ccc(CNc2nc(C#N)ncc2C(=O)c2cc(OC)c(OC)c(OC)c2)cc1Cl`, the melting point was 140 to 143 °C.

`O=C(c1cccs1)c1cnn2c(-c3cccs3)ccnc12`: the melting point was 193 to 195 °C.

Turning to `O=c1ccc(-c2c(-c3ccccc3)nn3ccccc23)nn1C1CN2CCC1CC2` (stereo not drawn), the melting point was in the range of 191 to 193 °C.

Consider `Nn1nc(-c2ccccc2)cc1OCCN1CCCC1`, for which the melting point came out at 138 °C.

Regarding `O=C(O)CC1(c2ccccc2)CCCCC1=O` (stereo not drawn), the melting point is 130 to 132 °C.

`CN1C(=O)C(c2ccncc2)(c2cccc(O)c2)N=C1N` (stereo not drawn) gave a melting point of 245 to 247 °C.

`COc1ccc(-c2nc(-c3ccccc3)no2)cc1` gave a melting point of 97 to 98 °C.

As to `NC(=O)C1(N)CCCCC1`, the melting point lay within 99 to 102 °C.

In turn, `Nc1nc(N)c(C(=O)N=CNN2CCSCC2)nc1Cl` yielded a melting point of 234 to 236 °C.

On to `C=CCc1cc(C)c2c(c1O)C(C)(C)C(=O)N2`, for which the melting point is 141 to 143 °C.

With `CCCCCCCCCCCCc1nnn(C(C)(C)C(=O)O)n1`, the melting point was 68 to 71 °C.

With `Cc1cc(-n2nc(C(F)(F)F)cc2-c2ccc(-c3cscn3)cc2)ccc1S(C)(=O)=O`, the melting point was in the range of 147 to 149 °C.

For `CCOC(=O)N1CCN(c2ccc(-n3cnn(C(C)(C)C(O)c4ccc(Cl)cc4)c3=O)cc2)CC1` (stereo not drawn), the melting point was 108 °C.

With `N#Cc1cc(-c2c3ccccc3cc3sc4ccccc4c23)ccc1OCC(=O)O`, the melting point is 235 to 236 °C.

Regarding `CCOC(=O)n1c(Cc2ccccc2)noc1=O`, the melting point was 129 °C.

`CCc1ccc(C=C2CCCN(c3nc(C)c(C(=O)NCc4ccccc4)s3)C2=O)s1`: the melting point lay in the range of 171 to 172 °C.

`CCOC12N=C(c3cccnc3)SC1Cc1cc(Cl)ccc12` (stereo not drawn) came in with a melting point of 89 to 90 °C.

For the compound `CCCn1nc(C(C)C)c(C(=O)OCc2cccc(C(=O)c3ccccc3)c2)c1Cc1ccc(-c2ccccc2S(N)(=O)=O)c(F)c1`, the melting point was 46 to 50 °C.

As for `O=C(O)CCP(=O)(O)c1ccccc1`, the melting point was 158 to 161 °C.

Turning to `CC(CCC(F)(F)C(C)(C)O)C1CCC2C3CCC4=CC(=O)CCC4(C)C3CCC12C` (stereo not drawn), the melting point lay within 177 to 178 °C.

Take `Cn1c(=O)c(Cc2ccccc2F)cc2cnc(S(C)(=O)=O)nc21`: the melting point stood at 154 °C.

For the compound `Cc1c(Cl)nn(C(C)(C)C(=O)N(C)C)c1-c1ccccc1`, the melting point was 134 to 136 °C.

On to `O=C1OC(Cl)(Cl)c2c(Cl)c(Cl)c(Cl)c(Cl)c21`, for which the melting point was 136 to 138 °C.

The compound `Cc1nc(N2CCCCC2=O)sc1C(=O)NCc1ccccc1` gave a melting point of 175 to 176 °C.

The compound `O=C(NN1CCc2ccccc2C1)Oc1ccc2c(c1)CN(Nc1ccncc1)C2` had a melting point of 162 to 163 °C.

On to `O=[N+]([O-])c1cc(-n2cccc2)ccc1F`, for which the melting point was 79 to 81 °C.

With `Cc1nc(C23CC4CC(CC(C4)C2)C3)oc1COC(=O)C(C)(C)O`, the melting point is 68 to 70 °C.

`NC(=O)NCCNc1ccc([N+](=O)[O-])cc1Cl` showed a melting point of 188 °C.

For the compound `CCC(=O)OCC(=O)Nc1nc2ccc(OC)cc2s1`, the melting point was 145 to 147 °C.

`CCOc1ccc(C2(N)NC(Nc3ccc4c(c3)OCCO4)=NC=C2F)cc1` (stereo not drawn) gave a melting point of 164 to 167 °C.

Consider `CCCCNc1nc2cc(C)nn2c2ccncc12`, for which the melting point amounted to 116 °C.

`CCCCn1c(CCC)ccc1Cc1cccc(NC(N)=O)c1` yielded a melting point of 85 to 89 °C.

`COc1cc(Nc2c(C#N)cnc3cc(C#CCN4CCN(C)CC4)sc23)cc(OC)c1OC`: the melting point was in the range of 180 to 182 °C.

`NCCNC(=O)c1cc2c(Oc3ccc(Cl)cc3)cncc2s1`: the melting point is 111 to 114 °C.

For `CC(C)OC(=O)c1cnc(C(=O)O)cn1`, the melting point fell in the range of 149 to 152 °C.

As to `CC(c1ccc(NC=O)c(N)c1)n1ccnc1` (stereo not drawn), the melting point was 212 °C.

In turn, `CCOC(=O)c1c(C)nc(N2CCCCC2)c2nnn(CC)c12` showed a melting point of 45 to 47 °C.

`OC(C=Cc1ccco1)c1cnc2sc3c(n12)CCCCC3` (stereo not drawn): the melting point was 177 to 180 °C.

In turn, `CC1(C)CC(=O)N(C(=O)OCc2ccccc2)CC(C)(C)N1` came in with a melting point of 86 to 88 °C.

`CON(C)C(=O)Nc1cc(C(C)(C)C)on1` had a melting point of 106 to 107 °C.

For the compound `N#Cc1ccc(Cc2ccc(OCC3CCCCC3)cc2)cc1`, the melting point was 104 to 106 °C.

On to `CN(C(=O)COc1cc(-c2ccccc2)nc2ccccc12)N1CCOCC1`, for which the melting point is 189 °C.

For the compound `C=C(C)C1CCC2(CO)CCC3(C)C(CCC4C5(C)CCC(O)C(C)(CO)C5CCC43C)C12` (stereo not drawn), the melting point lay within 256 to 260 °C.

`NC(=O)/C=C/c1cc([N+](=O)[O-])ccc1Cl` showed a melting point of 208 to 210 °C.

With `O=C(O)CCc1cccc2c1C[C@@H](CCCCc1ccccc1)O2`, the melting point lay in the range of 110 to 111 °C.

For the compound `CCN(C(C)=O)c1ccc(OC23CCC(CC2)CC3)cc1`, the melting point fell in the range of 99 to 101 °C.

As for `CCNC(=O)NC[C@H](O)c1cccc(O)c1`, the melting point fell in the range of 102 to 105 °C.

Turning to `NS(=O)(=O)OCCCOc1ccccc1`, the melting point fell in the range of 83 to 85 °C.

The compound `CCCN(CCC)CC1CCCCN1CCNC(=O)N1c2ccccc2C(=O)Nc2cccnc21` (stereo not drawn) gave a melting point of 165 °C.

`COc1cc2c3cc(OC)c(OC)cc3n(C(=O)c3ccccc3)c2cc1OC` yielded a melting point of 181 to 182 °C.

For `CCc1c(Cl)c(Oc2ncc(C(F)(F)F)cc2Cl)nn1C(=O)NC`, the melting point fell in the range of 88 to 89 °C.
